# In patent US6951881B2, “(1-substituted-indol-3-yl) alkylidenehydrazinecarboximidamide derivatives as 5-hydroxytryptamine-6 ligands” (Wyeth, priority 2002, dated 2005):
# Molecular target: T1, human cloned 5-HT6 receptors (Homo sapiens, UniProt P50406)
# T1 construct: expressed in transfected cells; host or cells: HeLa cells
# Format: binding
# Settings: not given
# Protocol: This operation is repeated.
# The reaction is allowed to proceed in the dark for 120 min at room temperature, at which time, the bound ligand-receptor complex is filtered off on a 96 well unifilter with a Packard Filtermate® 196 Harvester. The bound complex caught on the filter disk is allowed to air dry and the radioactivity is measured in a Packard TopCount® equipped with six photomultiplier detectors, after the addition of 40.0 μl Microscint®-20 scintillant to each shallow well. The unifilter plate is heat-sealed and counted in a PackardTopCount® with a tritium efficiency of 31.0%.
# Specific binding to the 5-HT6 receptor is defined as the total radioactivity bound less the amount bound in the presence of 10.0 μM unlabeled methiothepin. Binding in the presence of varying concentrations of test compound is expressed as a percentage of specific binding in the absence of test compound. The results are plotted as logit % bound versus log concentration of test compound. Nonlinear regression analysis of data points with a computer assisted program Prism® yields both the IC50 and the Ki values of test compounds with 95% confidence limits.
# The amount of displacement by the test compound is given in percent (%) inhibition and is derived from the following equation: [formula] where B0 is the amount of CPM bound in the presence of the testing agent. NSB represents the CPM bound in the presence of a saturating concentration of a displacer and TB represents the total amount of CPM bound at zero (0) concentration of test compound.
# Alternatively, a linear regression line of decline of data points is plotted, from which the IC50 value can be read off and the Ki value determined by solving the following equation: [formula] where L is the concentration of the radioactive ligand used and KD is the dissociation constant of the ligand for the receptor, both expressed in nM.
# T1 sequence (P50406 whole entry): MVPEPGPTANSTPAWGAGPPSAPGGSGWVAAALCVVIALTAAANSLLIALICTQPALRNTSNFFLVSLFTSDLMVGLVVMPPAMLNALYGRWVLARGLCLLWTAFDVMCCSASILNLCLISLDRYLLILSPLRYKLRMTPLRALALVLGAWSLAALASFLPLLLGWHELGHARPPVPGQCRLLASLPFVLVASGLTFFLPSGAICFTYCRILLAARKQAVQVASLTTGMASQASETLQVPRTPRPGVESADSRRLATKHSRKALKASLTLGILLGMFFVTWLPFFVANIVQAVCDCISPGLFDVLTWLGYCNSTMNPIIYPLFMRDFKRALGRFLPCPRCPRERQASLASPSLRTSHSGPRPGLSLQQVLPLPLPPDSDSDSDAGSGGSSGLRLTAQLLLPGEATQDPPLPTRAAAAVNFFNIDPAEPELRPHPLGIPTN
row,Structure (SMILES),inhibition at 0.1 µM
1,"CN(N=C1CCc2[nH]c3ccc(Cl)cc3c21)C1=NCCN1 [Example 184, 7-Chloro-3,4-dihydrocyclopenta[b]indol-1(2H)-one 4,5-dihydro-1H-imidazol-2-yl-(methyl)hydrazone]",19.8%

# Same assay, conditions: [3H]-LSD 3.0 nM, Hela cell membranes; read-out: 5-HT6 Binding Ki
row,Ki,Structure (SMILES)
1,20.2 nM,"Clc1ccc(-c2[nH]c3ccccc3c2C=NNC2=NCCN2)cc1 [Example 47, N-[2-(4-chlorophenyl)-1H-indol-3-ylmethylene]-N′-(4,5-dihydro-1H-imidazol-2-yl)hydrazine]"
2,4 nM,CC(=NNC(=N)N)c1cn(C)c2ccc(NS(=O)(=O)c3ccc(Cl)cc3)cc12 [Example 29]
3,7 nM,CC(=NNC(=N)N)c1cn(C)c2ccc(NS(=O)(=O)c3sc4ccc(Cl)cc4c3C)cc12 [Example 16]
4,109 nM,"N=C(N)NN=Cc1c(-c2ccc3ccccc3c2)[nH]c2ccccc12 [Example 51, 2-{[2-(naphthalen-2-yl)-1H-indol-3-yl]methylene}hydrazinecarboximidamide]"
5,10 nM,"CN(N=Cc1c(-c2ccc(Cl)cc2)[nH]c2ccccc12)C1=NCCN1 [Example 46, N′-[2-(4-chlorophenyl)-1H-indol-3-ylmethylene]-N-(4,5-dihydro-1H-imidazol-2-yl)-N-methylhydrazine]"

row,Structure (SMILES),Ki
1,"COc1ccc2[nH]c3c(c2c1)C(=NNC(=N)N)CCC3 [Example 162, N′-(6-methoxy-1,2,3,9-tetrahydro-4H-carbazol-4-ylidene)carbonohydrazonic diamide]",4.7 nM

# Same assay, conditions: test compound dose 100 nM; displacement of [3H]-LSD
row,Structure (SMILES),% Inhibition
1,"CC(=NNC(=N)N)c1c(-c2ccc(-c3ccccc3)cc2)[nH]c2ccc(Cl)cc12 [Example 141, 2-[(2-biphenyl-5-chloro-1H-indol-3-yl)-ethylidene]hydrazinecarboximidamide]",33.6%

# Same assay, conditions: test compound dose 100 nM; displacement of [3H]-LSD; read-out: % Inhibition
row,inhibition at 0.1 µM,Structure (SMILES)
1,22.9%,"CC(C)c1ccc2[nH]c3c(c2c1)C(=NN(C)C1=NCCN1)CC(C)(C)C3 [Example 177, 6-isopropyl-2,2-dimethyl-1,2,3,9-tetrahydro-4H-carbazol-4-one 4,5-dihydro-1H-imidazol-2-yl(methyl)hydrazone]"
2,46.1%,"C/C(=N\NC(=N)N)c1c(-c2sccc2C)n(C)c2ccccc12 [Example 146, 2-{[1-methyl-2-(2-(3-methyl-thienyl))-1H-indol-3-yl]-ethylidene}hydrazinecarboximidamide]"
3,38.5%,"Cc1ccc2[nH]c3c(c2c1)C(=NNC(=N)N)CC(C)(C)C3 [Example 163, 2-(2,2,6-trimethyl-1,2,3,9-tetrahydro-4H-carbazol-4-ylidene)hydrazinecarboximidamide]"
4,47%,"CCCCCNC(=N)NN=C1CCCc2[nH]c3ccc(Cl)cc3c21 [Example 181, 2-(6-chloro-1,2,3,9-tetrahydro-4H-carbazol-4-ylidene)-N-pentylhydrazinecarboximidamide]"
5,24.4%,"N=C(N)NN=C1CC(c2ccccc2)Cc2[nH]c3ccc(Br)cc3c21 (centres unmarked) [Example 170, 2-(6-bromo-2-phenyl-1,2,3,9-tetrahydro-4H-carbazol-4-ylidene)hydrazinecarboximidamide]"
6,24.6%,"N=C(N)NN=C1CC(c2ccccc2)Cc2[nH]c3ccc(Cl)cc3c21 (centres unmarked) [Example 172, 2-(6-chloro-2-phenyl-1,2,3,9-tetrahydro-4H-carbazol-4-ylidene)hydrazinecarboximidamide]"

# Same assay, conditions: test compound dose 1000 nM; displacement of [3H]-LSD
inhibition at 1 µM,Structure (SMILES),% Inhibition
70.6%,"Cn1c(-c2ccccc2)c(C=NNC(=N)N)c2ccccc21 [Example 89, 2-[(1-methyl-2-phenyl-1H-indol-3-yl)-methylene]hydrazinecarboximidamide]",
24.8%,"CC(C)=CC(=NN(C)C1=NCCN1)c1c(-c2ccccc2)[nH]c2ccccc12 [Example 68, N-(4,5-dihydro-1H-imidazol-2-yl)-N-methyl-N′-[3-methyl-1-(2-phenyl-1H-indol-3-yl)-but-2-enylidene]hydrazine]",
74%,"CCCCCNC(=NC)NN=Cc1c(-c2ccc(Cl)cc2)[nH]c2ccccc12 [Example 124, 2-{[2-(4-chlorophenyl)-1H-indol-3-yl]methylidene}-N′-methyl-N-pentyl-1hydrazinecarboximidamide]",
98.4%,CC(=NNC(=N)N)c1cn(C)c2ccc(NS(=O)(=O)c3ccc(Cl)cc3)cc12 [Example 29],
40.9%,"CN(N=C(C=Cc1ccccc1)c1c(-c2ccc(Cl)cc2)[nH]c2ccccc12)C1=NCCN1 [Example 72, N′-{1-[2-(4-chloro-phenyl)-1H-indol-3-yl]-3-phenyl-allylidene}-N-(4,5-dihydro-1H-imidazol-2-yl)-N-methylhydrazine]",
28.5%,"N=C(N)NN=C(c1c(-c2ccc(Cl)cc2)[nH]c2ccccc12)C1CCCCC1 [Example 55, 2-{[2-(4-chloro-phenyl)-1H-indol-3-yl]-cyclohexyl-methylene}hydrazinecarboximidamide]",
22.3%,"CC(=NNC(=N)N)c1c(-c2ccc(Cl)cc2)n(Cc2ccccc2)c2ccccc12 [Example 93, 2-{1-[1-benzyl-2-(4-chloro-phenyl)-1H-indol-3-yl]-ethylidene}hydrazinecarboximidamide]",
,"COc1ccc2[nH]c3c(c2c1)C(=NNC(=N)N)CCC3 [Example 162, N′-(6-methoxy-1,2,3,9-tetrahydro-4H-carbazol-4-ylidene)carbonohydrazonic diamide]",98%
31.3%,"Cn1c(-c2ccccc2)c(C(=NNC(=N)N)C2CCCCC2)c2ccccc21 [Example 79, 2-[cyclohexyl-(1-methyl-2-phenyl-1H-indol-3-yl)-methylene]hydrazinecarboximidamide]",
,"CN(N=C(c1ccc(Cl)cc1)c1c(-c2ccc(Cl)cc2)[nH]c2ccccc12)C1=NCCN1 [Example 67, N′-{(4-chlorophenyl)-[2-(4-chlorophenyl)-1H-indol-3-yl]-methylene}-N-(4,5,-dihydro-1H-imidazol-2-yl)-N-methylhydrazine]",35.2%
,"CCn1c(-c2ccc(Cl)cc2)c(C=NN(C)C2=NCCN2)c2ccccc21 [Example 104, N-{[2-(4-chloro-phenyl)-1-ethyl-1H-indol-3-yl]-methylene}-N′-(4,5-dihydro-1H-imidazol-2-yl)-N-methylhydrazine]",100.0%
68.7%,"CN(N=C1CCCc2[nH]c3ccc(F)cc3c21)C1=NCCN1 [Example 158, 6-fluoro-1,2,3,9-tetrahydro-4H-carbazol-4-one 4,5-dihydro-1H-imidazol-2-yl(methyl)hydrazone]",
98.7%,CC(=NNC(=N)N)c1cn(C)c2ccc(NS(=O)(=O)c3sc4ccc(Cl)cc4c3C)cc12 [Example 16],
87.2%,"CC(=NNC(=N)N)c1c(-c2ccc(F)c(Cl)c2)[nH]c2ccccc12 [Example 65, 2-{1-[2-(3-chloro-4-fluoro-phenyl)-1H-indol-3-yl]-ethylidene}hydrazinecarboximidamide]",
90.5%,"CNC(=N)NN=Cc1c(-c2ccc(Cl)cc2)[nH]c2ccccc12 [Example 121, 2-{[2-(4-chlorophenyl)-1H-indol-3-yl]methylidene}-N-methyl-1hydrazinecarboximidamide]",
37.5%,"CN(N=C(Cc1ccc(Cl)cc1)c1c(-c2ccc(Cl)cc2)[nH]c2ccccc12)C1=NCCN1 [Example 73, N′-{2-(4-chloro-phenyl)-1-[2-(4-chloro-phenyl)-1H-indol-3-yl]-ethylidene}-N-(4,5-dihydro-1H-imidazol-2-yl)-N-methylhydrazine]",
80.1%,"CCn1c(-c2ccc(Cl)cc2)c(C=NNC(=N)N)c2ccccc21 [Example 103, 2-{[2-(4-chloro-phenyl)-1-ethyl-1H-indol-3-yl]-methylene}hydrazinecarboximidamide]",
,"C=CCCn1c(-c2ccc(Cl)cc2)c(C=NN(C)C2=NCCN2)c2ccccc21 [Example 112, N-{[1-(3-butenyl)-2-(4-chloro-phenyl)-1H-indol-3-yl]-methylene}-N′-(4,5-dihydro-1H-imidazol-2-yl)-N-methylhydrazine]",85.1%
93.3%,"C/C(=N\NC(=N)N)c1c(-c2ccccc2)[nH]c2ccccc12 [Example 43, 2-[1-(2-Phenyl-1H-indol-3-yl)ethylidene]hydrazine-carboximidamide]",
99.1%,"N=C(N)N/N=C1\CCCc2[nH]c3ccc(Cl)cc3c21 [Example 152, 2-(6-Chloro-1,2,3,9-tetrahydro-4H-carbazol-4-ylidene)hydrazine-carboximidamide]",
96.3%,"Fc1ccc2[nH]c3c(c2c1)C(=NNC1=NCCN1)CCC3 [Example 157, 6-fluoro-1,2,3,9-tetrahydro-4H-carbazol-4-one 4,5-dihydro-1H-imidazol-2-ylhydrazone]",
96.4%,"[H]/N=C(/N)NN=C(C)c1c[nH]c2ccc(NS(=O)(=O)c3ccc(-c4ccccc4)cc3)cc12 [Example 35, (Z)-2-[1-[5-[(4-biphenylsulfonyl)amino]-1H-indol-3-yl]ethylidene]hydrazinecarboximidamide]",
96.5%,"CN(N=Cc1c(-c2ccc(Cl)cc2)[nH]c2ccccc12)C1=NCCN1 [Example 46, N′-[2-(4-chlorophenyl)-1H-indol-3-ylmethylene]-N-(4,5-dihydro-1H-imidazol-2-yl)-N-methylhydrazine]",
,"CN(N=C(c1ccc(Cl)cc1)c1c(-c2ccccc2)[nH]c2ccccc12)C1=NCCN1 [Example 66, N′-[(4-chlorophenyl)-(2-phenyl-1H-indol-3-yl)-methylene]-N-(4,5,-dihydro-1H-imidazol-2-yl)-N-methylhydrazine]",18.1%
